Laboratory results from patent US20140037606A1, “CELL-BASED, ANTI-CANCER VACCINES” (priority 2012, published 2014).

Key:
bone marrow-derived DCs [1] = test: DC viability/lifespan by FACS of 7-AAD staining of CD11c+ cells; format: cell-based, mouse; settings: treatment alone, no LPS; data not shown
Description: (§1) FIG. 1. Inhibition of mTOR expression prolongs DC lifespan and promotes expression of costimulatory molecules CD40 and CD86. (A) DCs were pulsed with Pam2CSK4, LPS, R848, or CpG for 6 hours and then washed and cultured in complete medium. Cell viability was monitored daily by FACS analysis of 7-AAD staining of CD11c^+ cells. (B) Western blot for mTOR and β-actin protein in Luciferase hpRNA (Luc^hp) or mTOR hpRNA (mTOR^hp)-transduced DCs. (C) DCs were stimulated with media alone, LPS, or rapamycin+LPS for 30 minutes. Cells were subsequently fixed and stained for phosphorylated S6 protein as a molecular readout for mTOR activation and analyzed by FACS. (D) Luc^hp and mTOR^hp-transduced DCs were left untreated or stimulated with LPS and monitored daily for cell viability by analysis of 7-AAD staining of CD11c^+ cells. (E) Luc^hp or mTOR^hp DCs were cultured with or without LPS for 24 hours and analyzed by FACS for CD40 and CD86 expression. […]
(§2) FIG. 2. […] Cells were monitored daily for cell viability as described for FIG. 1. […] (B) DCs were unstimulated or stimulated with LPS, RAP+LPS, or KU+LPS and analyzed by FACS 24 hours later for CD40 and CD86 expression. […] (C) DCs were treated as in (B) and analyzed daily by FACS for CD40 and CD86 expression gated on live CD11c^+ cells. […]

[2] = system: mTORC2-mediated Akt phosphorylation; test: Activation-induced Akt Ser473 phosphorylation in DCs; format: cell-based, mouse
bone marrow-derived DCs [3] = test: Costimulatory molecule expression on DCs by FACS; format: cell-based, mouse
Description: as §1, §2

human myeloid DCs = test: Costimulatory molecule expression in human myeloid DCs by FACS; format: cell-based; settings: R848 1 μg/mL, inhibitors 100 nM
Description: FIG. 3. Pharmacological inhibition of mTOR augments the duration of costimulatory molecule expression in human myeloid DCs. (A) Human myeloid DCs were either unstimulated or stimulated with R848 in the presence or absence of rapamycin (RAP) or KU. CD40 and CD86 expression was analyzed by FACS. Day 4 costimulatory molecule expression from a representative donor (5430) is depicted. (B) DCs were treated as in (A) and analyzed daily by FACS for CD40 and CD86 expression. (C) DCs were treated as in (A) and analyzed for viability at indicated times by FACS analysis of 7-AAD staining. For each treatment, data from 4-6 individual donors is depicted.
Human DC Culture: Human myeloid DCs were isolated from human blood using MACS positive selection beads. In brief, filters from hospital blood donors were generously donated by the CVPH Medical Center in Plattsburgh, N.Y. Blood cells were obtained by reverse flushing filters in sterile HBSS. PBMCs were obtained by centrifugation of blood samples over Ficoll-Paque Plus (density 1.077 g/mL) (GE Healthcare). Myeloid DCs were enriched using the BDCA-1 Positive Selection DC Islation Kit (Miltenyi Bioscience) per the manufacturer's instructions. […] At indicated times, DCs were harvested and analyzed by FACS for maturation markers.

Compound: COc1ccc(-c2ccc3c(N4CCOCC4)nc(N4C[C@@H](C)O[C@@H](C)C4)nc3n2)cc1CO [KU, KU 0063794]
- viability of unstimulated DCs (bone marrow-derived DCs [1]): did not impact
- activation induced Akt Ser473 phosphorylation [2]: inhibited
- duration of expression of CD40 and CD86 in response to LPS (bone marrow-derived DCs [3]; analyzed daily, live CD11c+ cells): prolonged
- percentage of DCs expressing CD40 and CD86 (bone marrow-derived DCs [3]; during LPS stimulation, 24 hours, inhibitors 100 nM): increase
- costimulatory molecule expression (CD40, CD86) in response to R848 (human myeloid DCs): enhanced
